Laboratory results from PubChem BioAssay (NCI).
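GI50 marks 50% less growth. At the TGI there is no net growth.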

How the values were obtained:
Test in all cases: NCI-60 cell line screen, 384-well format
786-0 renal = test system: 786-0 renal
A498 renal = test system: A498 renal
A549 NSCLC = test system: A549 NSCLC
ACHN renal = test system: ACHN renal
BT-549 breast = test system: BT-549 breast
CAKI-1 renal = test system: CAKI-1 renal
CCRF-CEM leukemia = test system: CCRF-CEM leukemia
COLO 205 colon = test system: COLO 205 colon
DU-145 prostate = test system: DU-145 prostate
EKVX NSCLC = test system: EKVX NSCLC
HCC-2998 colon = test system: HCC-2998 colon
HCT-116 colon = test system: HCT-116 colon
HCT-15 colon = test system: HCT-15 colon
HL-60(TB) leukemia = test system: HL-60(TB) leukemia
HOP-62 NSCLC = test system: HOP-62 NSCLC
HS 578T breast = test system: HS 578T breast
HT29 colon = test system: HT29 colon
IGROV1 ovarian = test system: IGROV1 ovarian
K-562 leukemia = test system: K-562 leukemia
KM12 colon = test system: KM12 colon
LOX IMVI melanoma = test system: LOX IMVI melanoma
M14 melanoma = test system: M14 melanoma
MALME-3M melanoma = test system: MALME-3M melanoma
MCF7 breast = test system: MCF7 breast
MDA-MB-231 breast = test system: MDA-MB-231 breast
MDA-MB-435 melanoma = test system: MDA-MB-435 melanoma
MDA-MB-468 breast = test system: MDA-MB-468 breast
MOLT-4 leukemia = test system: MOLT-4 leukemia
NCI-H226 lung = test system: NCI-H226 lung
NCI-H23 lung = test system: NCI-H23 lung
NCI-H322M lung = test system: NCI-H322M lung
NCI-H460 NSCLC = test system: NCI-H460 NSCLC
NCI-H522 lung = test system: NCI-H522 lung
NCI/ADR-RES ovarian = test system: NCI/ADR-RES ovarian
OVCAR-3 ovarian = test system: OVCAR-3 ovarian
OVCAR-4 ovarian = test system: OVCAR-4 ovarian
OVCAR-5 ovarian = test system: OVCAR-5 ovarian
PC-3 prostate = test system: PC-3 prostate
RPMI-8226 leukemia = test system: RPMI-8226 leukemia
SF-268 CNS = test system: SF-268 CNS
SF-295 CNS = test system: SF-295 CNS
SF-539 CNS = test system: SF-539 CNS
SK-MEL-28 melanoma = test system: SK-MEL-28 melanoma
SK-MEL-5 melanoma = test system: SK-MEL-5 melanoma
SK-OV-3 ovarian = test system: SK-OV-3 ovarian
SN12C renal = test system: SN12C renal
SNB-19 CNS = test system: SNB-19 CNS
SNB-75 CNS = test system: SNB-75 CNS
SW-620 colon = test system: SW-620 colon
T-47D breast = test system: T-47D breast
TK-10 renal = test system: TK-10 renal
U251 glioblastoma = test system: U251 glioblastoma
UACC-62 melanoma = test system: UACC-62 melanoma
UO-31 renal = test system: UO-31 renal

Cc1ccc(C(=O)N(CCCN)C(c2oc3cc(Cl)ccc3c(=O)c2Cc2ccccc2)C(C)C)cc1 (stereo not drawn)
GI50 ([…]-0 renal): < 10 nM
TGI (786-0 renal): 1390 nM
GI50 (A498 renal): 29 nM
TGI (A498 renal): 2010 nM
GI50 (A549 NSCLC): < 10 nM
TGI (A549 NSCLC): 1590 nM
GI50 (ACHN renal): 1160 nM
TGI (ACHN renal): 2420 nM
GI50 (BT-549 breast): < 10 nM
TGI (BT-549 breast): 1360 nM
GI50 (CAKI-1 renal): < 10 nM
TGI (CAKI-1 renal): 1950 nM
GI50 (CCRF-CEM leukemia): < 10 nM
TGI (CCRF-CEM leukemia): < 10 nM
GI50 (COLO 205 colon): < 10 nM
TGI (COLO 205 colon): < 10 nM
GI50 (DU-145 prostate): < 10 nM
TGI (DU-145 prostate): 1100 nM
GI50 (EKVX NSCLC): < 10 nM
TGI (EKVX NSCLC): 1920 nM
GI50 (HCC-2998 colon): < 10 nM
TGI (HCC-2998 colon): 542 nM
GI50 (HCT-116 colon): < 10 nM
TGI (HCT-116 colon): 1210 nM
GI50 (HCT-15 colon): < 10 nM
TGI (HCT-15 colon): 1230 nM
GI50 (HL-60(TB) leukemia): < 10 nM
TGI (HL-60(TB) leukemia): < 10 nM
GI50 (HOP-62 NSCLC): < 10 nM
TGI (HOP-62 NSCLC): 1760 nM
GI50 (HS 578T breast): < 10 nM
TGI (HS 578T breast): < 10 nM
GI50 (HT29 colon): < 10 nM
TGI (HT29 colon): < 10 nM
GI50 (IGROV1 ovarian): 511 nM
TGI (IGROV1 ovarian): 2140 nM
GI50 (K-562 leukemia): < 10 nM
TGI (K-562 leukemia): < 10 nM
GI50 (KM12 colon): < 10 nM
TGI (KM12 colon): 1180 nM
GI50 (LOX IMVI melanoma): < 10 nM
TGI (LOX IMVI melanoma): 1810 nM
GI50 (M14 melanoma): < 10 nM
TGI (M14 melanoma): < 10 nM
GI50 (MALME-3M melanoma): < 10 nM
TGI (MALME-3M melanoma): 1740 nM
GI50 (MCF7 breast): < 10 nM
TGI (MCF7 breast): 1370 nM
GI50 (MDA-MB-231 breast): < 10 nM
TGI (MDA-MB-231 breast): 1840 nM
GI50 (MDA-MB-435 melanoma): < 10 nM
TGI (MDA-MB-435 melanoma): < 10 nM
GI50 (MDA-MB-468 breast): < 10 nM
TGI (MDA-MB-468 breast): < 10 nM
GI50 (MOLT-4 leukemia): < 10 nM
TGI (MOLT-4 leukemia): < 10 nM
GI50 (NCI-H226 lung): 1500 nM
TGI (NCI-H226 lung): 2840 nM
GI50 (NCI-H23 lung): < 10 nM
TGI (NCI-H23 lung): < 10 nM
GI50 (NCI-H322M lung): < 10 nM
TGI (NCI-H322M lung): 2030 nM
GI50 (NCI-H460 NSCLC): < 10 nM
TGI (NCI-H460 NSCLC): < 10 nM
GI50 (NCI-H522 lung): < 10 nM
TGI (NCI-H522 lung): < 10 nM
GI50 (NCI/ADR-RES ovarian): 129 nM
TGI (NCI/ADR-RES ovarian): 286 nM
GI50 (OVCAR-3 ovarian): < 10 nM
TGI (OVCAR-3 ovarian): < 10 nM
GI50 (OVCAR-4 ovarian): 1270 nM
TGI (OVCAR-4 ovarian): 2560 nM
GI50 (OVCAR-5 ovarian): < 10 nM
TGI (OVCAR-5 ovarian): 1570 nM
GI50 (PC-3 prostate): < 10 nM
TGI (PC-3 prostate): 1550 nM
GI50 (RPMI-8226 leukemia): < 10 nM
TGI (RPMI-8226 leukemia): < 10 nM
GI50 (SF-268 CNS): < 10 nM
TGI (SF-268 CNS): < 10 nM
GI50 (SF-295 CNS): < 10 nM
TGI (SF-295 CNS): 1510 nM
GI50 (SF-539 CNS): < 10 nM
TGI (SF-539 CNS): 1260 nM
GI50 (SK-MEL-28 melanoma): 1310 nM
TGI (SK-MEL-28 melanoma): 2600 nM
GI50 (SK-MEL-5 melanoma): < 10 nM
TGI (SK-MEL-5 melanoma): < 10 nM
GI50 (SK-OV-3 ovarian): < 10 nM
TGI (SK-OV-3 ovarian): 1780 nM
GI50 (SN12C renal): < 10 nM
TGI (SN12C renal): 1880 nM
GI50 (SNB-19 CNS): < 10 nM
TGI (SNB-19 CNS): 1460 nM
GI50 (SNB-75 CNS): < 10 nM
TGI (SNB-75 CNS): 1810 nM
GI50 (SW-620 colon): < 10 nM
TGI (SW-620 colon): 275 nM
GI50 (T-47D breast): < 10 nM
TGI (T-47D breast): < 10 nM
GI50 (TK-10 renal): 1540 nM
TGI (TK-10 renal): 2900 nM
GI50 (U251 glioblastoma): < 10 nM
TGI (U251 glioblastoma): 1460 nM
GI50 (UACC-62 melanoma): < 10 nM
TGI (UACC-62 melanoma): 1290 nM
GI50 (UO-31 renal): 1110 nM
TGI (UO-31 renal): 2340 nM
